Substitutions are numbered along the chain they refer to. Counter-ions that a name gives are not always drawn.
Columns and labels:
[1] = target: T1, MRGPRX2-WT (wild-type MRGPRX2 receptor) (Homo sapiens, UniProt Q96LB1); test: Primary HTS, Ca2+ mobilization (fluorescence ratio, B-score) in HEK293-Gα15 cells stably expressing wild-type MRGPRX2; format: cell-based
T1 construct: expressed in transfected cells
T1 sequence (Q96LB1 1-330): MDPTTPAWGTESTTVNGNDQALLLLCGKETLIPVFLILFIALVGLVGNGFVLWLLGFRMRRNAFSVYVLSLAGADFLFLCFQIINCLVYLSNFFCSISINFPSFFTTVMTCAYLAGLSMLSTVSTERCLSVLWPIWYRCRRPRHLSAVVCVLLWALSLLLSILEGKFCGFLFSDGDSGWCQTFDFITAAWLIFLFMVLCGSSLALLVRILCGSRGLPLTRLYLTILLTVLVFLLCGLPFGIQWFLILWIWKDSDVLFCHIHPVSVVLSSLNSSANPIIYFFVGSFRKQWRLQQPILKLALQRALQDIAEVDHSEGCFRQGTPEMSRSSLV

[2] = target: T2, MRGPRX2-MUT (MRGPRX2 N62S mutation) (Homo sapiens, UniProt Q96LB1, N62S); test: Primary HTS, Ca2+ mobilization (fluorescence ratio, B-score) in HEK293-Gα15 cells stably expressing the MRGPRX2 N62S mutation; format: cell-based; settings: Supplementary Table 2
T2 construct: expressed in transfected cells
T2 sequence (Q96LB1 1-330 N62S): T1 sequence (Q96LB1 1-330) with N62S

MRGPRX2 N62S = target: T3, MRGPRX2 N62S (Homo sapiens, UniProt Q96LB1, N62S); test: Calcium response dose-response curves in HEK293-Gα15 cells expressing MRGPRX2 N62S; format: cell-based; settings: P=0.013, unpaired t-test
T3 construct: expressed in transfected cells
T3 sequence (Q96LB1 1-330 N62S): T1 sequence (Q96LB1 1-330) with N62S

MRGPRX2-WT = target: T4, MRGPRX2-WT (Homo sapiens, UniProt Q96LB1); test: Calcium response dose-response curves in HEK293-Gα15 cells expressing MRGPRX2-WT; format: cell-based
T4 construct: expressed in transfected cells
T4 sequence (Q96LB1 1-330): T1 sequence (Q96LB1 1-330)

[3] = system: HEK293-Gα15 cells without MRGPRX2; test: Calcium release in HEK293-Gα15 cells without MRGPRX2 (negative control screening); settings: compared to MRGPRX2-WT or MRGPRX2-N62S cells, data not shown
MRGPRX2 = settings: weak agonist; cited from earlier work

COc1cccc2c1C(=O)c1c(O)c3c(c(O)c1C2=O)C[C@@](O)(C(C)=O)C[C@@H]3O[C@H]1C[C@H](N)[C@H](O)[C@H](C)O1 [Daunorubicin Hydrochloride]
B-scores (WT) ([1]; 10 μM compound, Supplementary Table 2): 2.95
B-scores (MUT) ([2]; 10 μM compound, MRGPRX2-MUT (N62S) cells): 15.19
Change of B-scores (%) ([2]; MRGPRX2-MUT versus MRGPRX2-WT cells, 10 μM): 414.49%
EC50 values comparing MRGPRX2-MUT to MRGPRX2-WT cells (MRGPRX2 N62S): demonstrated the LOF property

COc1cccc2c1C(=O)c1c(O)c3c(c(O)c1C2=O)C[C@@](O)(C(=O)CO)C[C@@H]3O[C@H]1C[C@H](N)[C@H](O)[C@H](C)O1 [Doxorubicin Hydrochloride]
EC50 (MRGPRX2-WT): 131 nM

CSCC[C@H](NC(=O)[C@H](CC(C)C)NC(=O)CNC(=O)[C@H](Cc1ccccc1)NC(=O)[C@H](Cc1ccccc1)NC(=O)[C@H](CCC(N)=O)NC(=O)[C@H](CCC(N)=O)NC(=O)[C@@H]1CCCN1C(=O)[C@H](CCCCN)NC(=O)[C@@H]1CCCN1C(=O)[C@@H](N)CCCNC(=N)N)C(N)=O [SP, substance P]
calcium response in empty HEK293-Gα15 cells [3]: no increase in calcium response was detected

CN[C@H](CC(C)C)C(=O)N[C@H]1C(=O)N[C@@H](CC(N)=O)C(=O)N[C@H]2C(=O)N[C@H]3C(=O)N[C@H](C(=O)N[C@H](C(=O)O)c4cc(O)cc(O)c4-c4cc3ccc4O)[C@H](O)c3ccc(c(Cl)c3)Oc3cc2cc(c3O[C@@H]2O[C@H](CO)[C@@H](O)[C@H](O)[C@H]2O[C@H]2C[C@](C)(N)[C@H](O)[C@H](C)O2)Oc2ccc(cc2Cl)[C@H]1O [vancomycin]
B-score value ([1]; 10 μM): 16.36
calculated EC50 (MRGPRX2): 60 µg/mL
